Measured values published in patent US20060229358A1, “Pharmaceutical composition containing flavonoids” (Taipei Medical University, priority 2005, published 2006).

Legend:
PDE1 = test: Inhibition of cyclic nucleotide PDE activity (Assay I), PDE1; type: biochemical, guinea pig; conditions: mean ± S.E.M. (n); read-out: IC50 on phosphodiesterase isozyme 1
Description: (§1) Under a protocol approved by the Animal Care and Use Committee of Taipei Medical University, five male guinea pigs (Hartley), weighing 500-600 g, were sacrificed. The lungs (15 g) or hearts (4 g) taken therefrom were chopped into small pieces and homogenized with a glass/teflon homogenizer (Glas-Col, Terre Haute, Ind., USA) in 10 volumes of cold medium (pH 6.5) containing 20 mM Bis-Tris, 2 mM benzamidine, 2 mM EDTA, 50 mM sodium chloride, 0.1 mM phenylmethanesulfonyl fluoride (PMSF), and 1 mM dithiothreitol. At 4° C., the homogenate was centrifuged at 170 g for 15 min, and the supernatant thereof was then re-centrifuged at 40,000 g for 30 min. The final supernatant fraction was filtered through the 0.22 μm filter and applied to a Q-sepharose fast flow column (2.2×28 cm), which is pre-washed and pre-equilibrated in homogenization buffer. The column was washed with two bed volumes of homogenate buffer to remove unbound material, where the resin beads therein will bind with proteins, such as PDE proteins. Proteins bound to the Q-sepharose beads were eluted with various concentrations (0.23, 0.34, 0.44, 0.69, and 1.00 M) of NaCl dissolved in homogenate buffer (for each concentration, 40-50 mL elution buffer were applied) at a flow rate of 30 ml/h. Fractions (3 ml each) were collected, and ethylene glycol (EG) was added thereto until a final concentration of 30% (v/v). And then the samples were frozen at −70° C. Under these conditions, the enzyme activity was stable for at least 3 months.
In order to eliminate possible contamination of PDE5 by PDE1, the above-collected fractions with enzyme activity was further purified on a calmodulin-agarose column. The column (1.6 cm×4 cm) was pre-equilibrated by a buffer A, which contains 20 mM Bis-tris, 1 mM dithiothreitol, 2 mM benzamidine, 50 mM NaCl, 3 mMMgCl2, 0.1 mM CaCl2, and 0.1 mM PMSF, pH 6.5. The sample (the mixture of PDE5 and PDE1), being purified by the above-mentioned column, with the CaCl2 concentration thereof adjusted to at least 2 mM previously, was loaded and allowed to be absorbed on the gel for 30 min. Then, the PDE isozymes were eluted by stepwise elution using 20 ml of buffer A with 1 M NaCl followed by 20 ml of buffer A with 1 M NaCl and with 1 mM EGTA. PDE5 was collected first followed by PDE1.
(§2) The activities of PDE1-5 in the homogenate were measured with a two-step procedure according to the method of Thompson and Appleman, using cAMP with [^3H]-cAMP or cGMP with [^3 H]-cGMP as substrates. The PDE enzyme prepared (25 μl) with 10 μl inhibitor or the solvents therefor was incubated for 30 min at 37° C. in a total assay buffer, where the final volume of the assay is amounted to 100 μl. In accordance with the features of the PDE isozymes, the assay buffer contains 50 mM Tris/HCl (pH 7.4), 3 mM MgCl2, 1 mM dithiothreitol, and 0.05% BSA, and optionally contains 1 uM cAMP with 0.2 μCi [^3H]-cAMP as a substrate alone or in the presence of 0.1 unit calmodulin with 10 μM CaCl2, or 5 μM cGMP, and 1 μM cGMP with 0.2 μCi [^3H]-cGMP as another substrate alone or in the presence of 0.1 unit calmodulin with 10 μM CaCl2. In assay of enzyme inhibition, the assay mixture contained with the inhibitors at various concentrations of flavonoids in the Table 1 or the selective PDE1-5 inhibitors as reference drugs. For example, the selective PDE1-5 inhibitors are vinpocetin [30], EHNA [31], milrinone, Ro 20-1724 [33], and zaprinast, respectively.
The PDE enzyme and the inhibitors (or their solvent) therefor were mixed and incubated on ice for 30 min previously, and then mixed with the assay buffer. The assay was initiated by transferring the mixture to a water bath at 37° C. Following the other 30 min incubation, the reaction was stopped by transferring the reaction vessel to a bath of boiling water for 3 min. After cooling on ice, 20 μl of the 1 mg/ml of Crotalus atrox venom was added to the reaction mixture, and the mixture was incubated at 37° C. for 10 min. […]

PDE3 = test: Inhibition of cyclic nucleotide PDE activity (Assay I), PDE3; type: biochemical, guinea pig; conditions: mean ± S.E.M. (n); read-out: IC50 on phosphodiesterase isozyme 3
Description: as §1, with “The final supernatant fraction was filtered through the 0.22 μm filter and applied to a Q-sepharose fast flow column (2.2×28 cm), which is pre-washed and pre-equilibrated in homogenization buffer.” left out, “C.” for “C. Under these conditions, the enzyme activity was stable for at least 3 months.”
as §2, with “CaCl2.” for “CaCl2. In assay of enzyme inhibition, the assay mixture contained with the inhibitors at various concentrations of flavonoids in the Table 1 or the selective PDE1-5 inhibitors as reference drugs. For example, the selective PDE1-5 inhibitors are vinpocetin [30], EHNA [31], milrinone, Ro 20-1724 [33], and zaprinast, respectively.”
(§3) The PDE enzyme and the inhibitors (or their solvent) therefor were mixed and incubated on ice for 30 min previously, and then mixed with the assay buffer. The assay was initiated by transferring the mixture to a water bath at 37° C. Following the other 30 min incubation, the reaction was stopped by transferring the reaction vessel to a bath of boiling water for 3 min. After cooling on ice, 20 μl of the 1 mg/ml of Crotalus atrox venom was added to the reaction mixture, and the mixture was incubated at 37° C. for 10 min. The uncatalyzed substrates, such as cAMP, [^3H]-cAMP, cGMP, or [^3H]-cGMP were removed by the addition of 500 μl of a 1-in-1 Tris-HCl (40 mM) buffer suspension of Dowex resin (1×8-200) with incubation on ice for 30 min, since the bindings of the cyclic nucleotides and the resin. Each tube was then centrifuged for 2 min at 6000 rpm, and 100 μl of the supernatant was removed and counted by a β-counter for calculating the enzyme (PDEs) activity.
(§4) The IC50 values of flavonoids and various reference drugs were calculated using non-linear regression analysis by the software SigmaPlot 7.0 (Sigma Chemical, St. Louis Mo., USA). All values are shown as the mean±S.E.M. Differences among values, which are equal or greater to three groups, were statistically calculated by one-way analysis of variance (ANOVA), and then determined by the least significant difference (LSD). The difference between two values, however, was determined by use of Student's unpaired t-test. Differences were considered statistically significant if the P-value was less than 0.05.

PDE2 = molecular target: T1, PDE2 (Cavia porcellus, UniProt A0A286XUV5); test: Inhibition of cyclic nucleotide PDE activity (Assay I), PDE2; type: biochemical, guinea pig; conditions: mean ± S.E.M. (n); read-out: IC50 on phosphodiesterase isozyme 2
T1 sequence (A0A286XUV5 22-936): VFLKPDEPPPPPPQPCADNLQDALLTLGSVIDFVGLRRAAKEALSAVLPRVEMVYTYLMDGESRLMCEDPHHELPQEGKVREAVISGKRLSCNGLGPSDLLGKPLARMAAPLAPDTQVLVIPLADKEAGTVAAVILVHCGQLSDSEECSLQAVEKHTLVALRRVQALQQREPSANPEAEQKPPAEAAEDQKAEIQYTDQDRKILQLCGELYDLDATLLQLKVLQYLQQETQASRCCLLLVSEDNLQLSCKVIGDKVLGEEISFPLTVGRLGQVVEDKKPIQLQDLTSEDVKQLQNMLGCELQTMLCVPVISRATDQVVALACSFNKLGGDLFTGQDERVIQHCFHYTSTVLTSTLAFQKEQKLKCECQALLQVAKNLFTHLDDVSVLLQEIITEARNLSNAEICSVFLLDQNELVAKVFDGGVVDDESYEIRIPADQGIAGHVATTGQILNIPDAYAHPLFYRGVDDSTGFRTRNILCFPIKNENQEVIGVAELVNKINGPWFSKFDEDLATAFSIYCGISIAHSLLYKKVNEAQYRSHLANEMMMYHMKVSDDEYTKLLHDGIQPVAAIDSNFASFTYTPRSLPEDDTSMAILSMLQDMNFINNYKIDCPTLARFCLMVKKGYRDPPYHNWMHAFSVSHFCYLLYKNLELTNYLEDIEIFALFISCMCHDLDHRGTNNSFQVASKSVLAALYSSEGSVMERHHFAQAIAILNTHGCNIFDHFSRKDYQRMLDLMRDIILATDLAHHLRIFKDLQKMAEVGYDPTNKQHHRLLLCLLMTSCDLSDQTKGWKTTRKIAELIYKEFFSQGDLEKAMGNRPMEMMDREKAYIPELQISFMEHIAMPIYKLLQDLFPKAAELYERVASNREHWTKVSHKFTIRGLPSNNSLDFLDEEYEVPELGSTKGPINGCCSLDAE
Description: as §1, with “The final supernatant fraction was filtered through the 0.22 μm filter and applied to a Q-sepharose fast flow column (2.2×28 cm), which is pre-washed and pre-equilibrated in homogenization buffer.” left out, “C.” for “C. Under these conditions, the enzyme activity was stable for at least 3 months.”
as §2, with “CaCl2.” for “CaCl2. In assay of enzyme inhibition, the assay mixture contained with the inhibitors at various concentrations of flavonoids in the Table 1 or the selective PDE1-5 inhibitors as reference drugs. For example, the selective PDE1-5 inhibitors are vinpocetin [30], EHNA [31], milrinone, Ro 20-1724 [33], and zaprinast, respectively.”
as §3, §4

[1] = molecular target: T2, high affinity rolipram binding sites (HARBS, PDE4H); test: Binding to particulate HARBS of whole brain, displacement of [3H]-rolipram (Assay II); parameters: species or system guinea pig; conditions: 2 nM [3H]-rolipram, guinea pig whole brain particulates, FIG. 2; read-out: IC50 for displacement of [3H]-rolipram from HARBS
T2 construct: IC50 for displacement of [3H]-rolipram from HARBS; other: 300 μM, guinea pig, preliminary experimental data; other: guinea pig whole brain particulates; over 300 μM not available due
Description: The binding experiments are carried on basis of the methods of Schneider et al. and Zhao et al. with a small modification. Under a protocol approved by the Animal Care and Use Committee of Taipei Medical University, five male guinea pigs (Hartley), weighing 500-600 g, were anesthetized. The whole brains taken therefrom were homogenized with in 10 volumes of cold medium (pH 6.5) containing 20 mM Bis-Tris, 2 mM benzamidine, 2 mM EDTA, 50 mM sodium chloride, 0.1 mM phenylmethanesulfonyl fluoride (PMSF), and 1 mM dithiothreitol. At 4° C., the homogenate was centrifuged at 170 g for 15 min for removing blood vessels and connective tissues, and the supernatant thereof was then re-centrifuged at 40,000 g for 30 min for separating the particulates from the cytosol of cells.
After incubation, the reaction was stopped by transferring the reaction vessel to a bath of crashed ice. Then the reaction mixture was filtered through a punched glass fiber filter (Whatman GF/B) placed in a mini funnel, which was adopted to a 1.5 ml of Eppendorff's tube for collecting the filtrate in the mini centrifuge at 1000 rpm for 10 seconds. By the same way (centrifugation), it is further washed with 0.3 ml reaction buffer each for three times. The Whatman GF/B filter was mixed with 2 ml of cocktail and counted by the β-scintillation counter (Backman, Fullerton, Calif., USA) for counting the radioactivity thereof.

PDE4H (HARBS) = conditions: references [24-26]; cited from earlier work
PDE4 = system: T3, PDE4; test: Inhibition of cyclic nucleotide PDE activity (Assay I), PDE4, incl. Lineweaver-Burk analysis; type: biochemical, guinea pig; conditions: mean ± S.E.M. (n); read-out: IC50 on phosphodiesterase isozyme 4
T3 construct: IC50 on phosphodiesterase isozyme 4; other: mean ± S.E.M. (n)
Description: as §1, with “The final supernatant fraction was filtered through the 0.22 μm filter and applied to a Q-sepharose fast flow column (2.2×28 cm), which is pre-washed and pre-equilibrated in homogenization buffer.” left out, “C.” for “C. Under these conditions, the enzyme activity was stable for at least 3 months.”
as §2, with “CaCl2.” for “CaCl2. In assay of enzyme inhibition, the assay mixture contained with the inhibitors at various concentrations of flavonoids in the Table 1 or the selective PDE1-5 inhibitors as reference drugs. For example, the selective PDE1-5 inhibitors are vinpocetin [30], EHNA [31], milrinone, Ro 20-1724 [33], and zaprinast, respectively.”
as §3
The dissociation constant of inhibitor binding (Ki) value was determined from the equation of apparent Km as a function of the inhibitor concentration (insert in A and B, respectively). The slope of the equation is equal to the value of […] (where KM is Michaelis constant). The amounts of the total proteins are calculated based on the analytical method reported by Bradford. In FIGS. 1A and 1B, all enzyme activities are shown as nmole of substrate per mg of proteins per minute (nmole/mg/min) hydrolyzed.
The IC50 values of flavonoids and various reference drugs were calculated using non-linear regression analysis by the software SigmaPlot 7.0 (Sigma Chemical, St. Louis Mo., USA).

COc1ccc(-c2cc(=O)c3c(O)cc(O)cc3o2)cc1O [Diosmetin]
IC50 (PDE1): 14.4 ± 6.2 µM
IC50 (PDE3): > 100 µM

Cc1[nH]c(=O)c(C#N)cc1-c1ccncc1 [milrinone, reference compound]
IC50 (PDE3): 2.4 ± 0.5 µM

CCCCCC[C@@H]([C@@H](C)O)n1cnc2c(N)ncnc21 (racemic) [EHNA, erythro-9-(2-hydroxy-3-nonyl)adenine, reference compound]
IC50 (PDE2): 4.4 ± 1 µM

COc1ccc(C2CC(=O)c3c(OC(C)=O)cc(OC(C)=O)cc3O2)cc1OC(C)=O (stereo not shown) [HTA, hesperetin triacetate]
IC50 [1]: > 300 µM

O=C(Nc1c(Cl)cncc1Cl)c1ccc(OC(F)F)c(OCC2CC2)c1 [roflumilast]
PDE4H/PDE4L ratio (PDE4H (HARBS)): 3

CCCCOc1cc(CC2CNC(=O)N2)ccc1OC (stereo not shown) [Ro 20-1724, reference compound]
IC50 (PDE4): 11.4 ± 1.6 µM
IC50 [1]: 0.0673 µM

COc1c(-c2ccc(OC(C)=O)c(OC(C)=O)c2)oc2cc(OC(C)=O)cc(OC(C)=O)c2c1=O [QMPA, Quercetin 3-O-methyl peracetate]
IC50 [1]: 8.7 µM

CCOC(=O)C1=C[C@]2(CC)CCCN3CCc4c(n1c1ccccc41)[C@@H]32 [vinpocetine, reference compound]
IC50 (PDE1): 123 ± 44.9 µM
